Test results published in article PMC4893628, “Chalcone-based Selective Inhibitors of a C4 Plant Key Enzyme as Novel Potential Herbicides” (Scientific Reports, 2016).
Read-outs that look alike come from different tables or passages of the source.

Key:
Format in all cases: cell-based
[1] = test system: Corynebacterium glutamicum ATCC13032; assay: Bacterial growth in microscale cultivation, C. glutamicum; conditions: for activity at 5 µM / activity at 50 µM / activity at 500 µM / activity at 100 µM: Corynebacterium glutamicum; for Lag Phase: relative to control
Method: (§1) The following bacteria were cultivated in the presence of trans-chalcone derived inhibitors: Corynebacterium glutamicum ATCC13032[43], Escherichia coli K-12 MG1655[44], Pseudomonas putida KT2440[45], and Bacillus subtilis 168[46]. The growth of these bacteria was monitored in flower-well plates shaken at 1200 rpm as backscatter at 620 nm (gain 20) using a BioLector® microscale cultivation system (m2p labs, Baesweiler, Germany). For further experimental details please refer to the Supplementary Information.
(§2) medium or the appropriate minimal medium and shaken at 140 rpm overnight. For inoculation of
(§3) the main culture, cells equivalent to an optical density at 600 nm of 0.5 (C. glutamicum, E. coli,
(§4) and P. putida) or 0.25 (B. subtilis) in 800 µL medium were washed and resuspended in fresh
(§5) media. Inhibitor substances were dissolved in DMSO and added to the media to a final
(§6) Since the least polar trans-chalcone and 2’-hydroxychalcone precipitated in the growth media at
(§7) the highest concentrations, the maximal concentration of these compounds was reduced to 400
(§8) µM and 100 µM, respectively. The final backscatter at 620 nm, the growth rate (h-1), and the
(§9) duration of the lag phase of all cultures were determined in a BioLector microscale cultivation
(§10) system in comparison to negative controls supplemented with the solvent DMSO. A longer lag

[2] = test system: Escherichia coli K-12 MG1655; assay: Bacterial growth in microscale cultivation, E. coli; conditions: for activity at 5 µM / activity at 50 µM / activity at 500 µM: Escherichia coli; for Lag Phase: relative to control
Method: as §1, §2, §3, §4, §5, §6, §7, §8, §9, §10

Bacillus subtilis 168 = assay: Bacterial growth in microscale cultivation, B. subtilis; conditions: for Lag Phase: relative to control
Method: as §1, §2, §3, §4, §5, §6, §7, §8, §9, §10

## O=C(/C=C/c1ccccc1)c1ccccc1O [Compound 2, 2′-Hydroxychalcone]
[1]; ATCC13032, read-out: Final Backscatter, complex medium, 5 µM, relative to control
  activity at 5 µM: 101%
[1]; ATCC13032, read-out: Final Backscatter, complex medium, 50 µM, relative to control
  activity at 50 µM: 105%
[1]; ATCC13032, read-out: Final Backscatter, complex medium, 500 µM, relative to control
  activity at 500 µM: 111%
[1]; ATCC13032, read-out: Final Backscatter, minimal medium, 5 µM, relative to control
  activity at 5 µM: 102%
[1]; ATCC13032, read-out: Final Backscatter, minimal medium, 50 µM, relative to control
  activity at 50 µM: 99.6%
[1]; ATCC13032, read-out: Final Backscatter, minimal medium, 100 µM, relative to control
  activity at 100 µM: 101%
[1]; ATCC13032, read-out: Final Backscatter, minimal medium, 500 µM, relative to control
  activity at 500 µM: 102%
[1]; ATCC13032, read-out: Growth rate, complex medium, 5 µM, relative to control
  activity at 5 µM: 96.2%
[1]; ATCC13032, read-out: Growth rate, complex medium, 50 µM, relative to control
  activity at 50 µM: 91.5%
[1]; ATCC13032, read-out: Growth rate, complex medium, 500 µM, relative to control
  activity at 500 µM: 102%
[1]; ATCC13032, read-out: Growth rate, minimal medium, 5 µM, relative to control
  activity at 5 µM: 101%
[1]; ATCC13032, read-out: Growth rate, minimal medium, 50 µM, relative to control
  activity at 50 µM: 99.6%
[1]; ATCC13032, read-out: Growth rate, minimal medium, 100 µM, relative to control
  activity at 100 µM: 101%
[1]; ATCC13032, read-out: Growth rate, minimal medium, 500 µM, relative to control
  activity at 500 µM: 92.9%
[1]; complex medium, 5 µM
  Lag Phase: 98,4%
[1]; complex medium, 50 µM
  Lag Phase: 100,0%
[1]; complex medium, 500 µM
  Lag Phase: 101,1%
[1]; minimal medium, 5 µM
  Lag Phase: 98,7%
[1]; minimal medium, 50 µM
  Lag Phase: 102,6%
[1]; minimal medium, 100 µM
  Lag Phase: 104,2%
[1]; minimal medium, 500 µM
  Lag Phase: 124,3%
[2]; MG1655, read-out: Final Backscatter, complex medium, 5 µM, relative to control
  activity at 5 µM: 100%
[2]; MG1655, read-out: Final Backscatter, complex medium, 50 µM, relative to control
  activity at 50 µM: 103%
[2]; MG1655, read-out: Final Backscatter, complex medium, 500 µM, relative to control
  activity at 500 µM: 98.1%
[2]; MG1655, read-out: Final Backscatter, minimal medium, 5 µM, relative to control
  activity at 5 µM: 100%
[2]; MG1655, read-out: Final Backscatter, minimal medium, 50 µM, relative to control
  activity at 50 µM: 97%
[2]; MG1655, read-out: Final Backscatter, minimal medium, 500 µM, relative to control
  activity at 500 µM: 101%
[2]; MG1655, read-out: Growth rate, complex medium, 5 µM, relative to control
  activity at 5 µM: 97.7%
[2]; MG1655, read-out: Growth rate, complex medium, 50 µM, relative to control
  activity at 50 µM: 86.6%
[2]; MG1655, read-out: Growth rate, minimal medium, 5 µM, relative to control
  activity at 5 µM: 102%
[2]; MG1655, read-out: Growth rate, minimal medium, 50 µM, relative to control
  activity at 50 µM: 105%
[2]; complex medium, 5 µM
  Lag Phase: 95,5%
[2]; complex medium, 50 µM
  Lag Phase: 100,0%
[2]; minimal medium, 5 µM
  Lag Phase: 89,4%
[2]; minimal medium, 50 µM
  Lag Phase: 91,6%
Bacillus subtilis 168; Bacillus subtilis, 168, read-out: Final Backscatter, complex medium, 5 µM, relative to control
  activity at 5 µM: 96.4%
Bacillus subtilis 168; Bacillus subtilis, 168, read-out: Final Backscatter, complex medium, 50 µM, relative to control
  activity at 50 µM: 97.6%
Bacillus subtilis 168; Bacillus subtilis, 168, read-out: Final Backscatter, complex medium, 100 µM, relative to control
  activity at 100 µM: 112%
Bacillus subtilis 168; Bacillus subtilis, 168, read-out: Final Backscatter, complex medium, 500 µM, relative to control
  activity at 500 µM: 75.6%
Bacillus subtilis 168; Bacillus subtilis, 168, read-out: Final Backscatter, minimal medium, 5 µM, relative to control
  activity at 5 µM: 97.9%
Bacillus subtilis 168; Bacillus subtilis, 168, read-out: Final Backscatter, minimal medium, 50 µM, relative to control
  activity at 50 µM: 95.5%
Bacillus subtilis 168; Bacillus subtilis, 168, read-out: Final Backscatter, minimal medium, 100 µM, relative to control
  activity at 100 µM: 101%
Bacillus subtilis 168; Bacillus subtilis, 168, read-out: Final Backscatter, minimal medium, 500 µM, relative to control
  activity at 500 µM: 70%
Bacillus subtilis 168; Bacillus subtilis, 168, read-out: Growth rate, complex medium, 5 µM, relative to control
  activity at 5 µM: 91.2%
Bacillus subtilis 168; Bacillus subtilis, 168, read-out: Growth rate, complex medium, 50 µM, relative to control
  activity at 50 µM: 97.7%
Bacillus subtilis 168; Bacillus subtilis, 168, read-out: Growth rate, complex medium, 100 µM, relative to control
  activity at 100 µM: 118%
Bacillus subtilis 168; Bacillus subtilis, 168, read-out: Growth rate, minimal medium, 5 µM, relative to control
  activity at 5 µM: 96.8%
Bacillus subtilis 168; Bacillus subtilis, 168, read-out: Growth rate, minimal medium, 50 µM, relative to control
  activity at 50 µM: 113%
Bacillus subtilis 168; Bacillus subtilis, 168, read-out: Growth rate, minimal medium, 100 µM, relative to control
  activity at 100 µM: 134%
Bacillus subtilis 168; Bacillus subtilis, 168, read-out: Growth rate, minimal medium, 500 µM, relative to control
  activity at 500 µM: 98.7%
Bacillus subtilis 168; complex medium, 5 µM
  Lag Phase: 89,8%
Bacillus subtilis 168; complex medium, 50 µM
  Lag Phase: 100,0%
Bacillus subtilis 168; complex medium, 100 µM
  Lag Phase: 95,4%
Bacillus subtilis 168; minimal medium, 5 µM
  Lag Phase: 99,5%
Bacillus subtilis 168; minimal medium, 50 µM
  Lag Phase: 108,5%
Bacillus subtilis 168; minimal medium, 100 µM
  Lag Phase: 107,8%
Bacillus subtilis 168; minimal medium, 500 µM
  Lag Phase: 143,1%
